Values of other authors in patent publication US7879357B2 (priority 2003, dated 2011).

Conditions: skin of the retro-auricular region and the scrotum

C[C@]12CCC(=O)C=C1CC[C@@H]1[C@@H]2[C@@H](O)C[C@@]2(C)[C@H]1CC[C@]2(O)C(=O)CO [hydrocortisone]
uptake rate through the skin compared to the lower arm: up to 40 ×
